pIC50: −log10 of the molar value. Counter-ions that a name gives are not always drawn.

The first test addresses T1, Recombinant human active heparanase (Homo sapiens, UniProt Q9Y251).
T1 construct: Recombinant human active heparanase derived from Chinese hamster ovary cells; purchased R&D Systems; host or cells: Chinese hamster ovary cells
T1 sequence (Q9Y251 158-543 limits assumed): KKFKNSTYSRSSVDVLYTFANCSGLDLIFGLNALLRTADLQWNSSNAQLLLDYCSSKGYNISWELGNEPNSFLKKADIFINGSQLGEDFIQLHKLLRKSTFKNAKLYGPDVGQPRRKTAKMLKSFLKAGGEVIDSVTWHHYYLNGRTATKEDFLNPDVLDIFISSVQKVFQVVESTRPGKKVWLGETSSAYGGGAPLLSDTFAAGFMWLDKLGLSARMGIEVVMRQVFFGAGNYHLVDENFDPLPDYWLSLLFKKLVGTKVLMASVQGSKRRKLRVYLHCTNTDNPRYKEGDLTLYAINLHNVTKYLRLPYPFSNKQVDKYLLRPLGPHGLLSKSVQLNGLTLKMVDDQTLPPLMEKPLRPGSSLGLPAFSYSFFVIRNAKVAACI
T1 sequence (Q9Y251 36-109 limits assumed): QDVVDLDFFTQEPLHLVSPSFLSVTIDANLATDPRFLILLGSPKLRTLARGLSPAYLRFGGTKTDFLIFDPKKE
Put plainly: Heparanase enzyme inhibition assay (fondaparinux substrate, WST-1 detection). Format: biochemical. The settings on record: IC50 heparanase inhibition by compounds of Formula 1, Table 3. As to the method:
Recombinant human active heparanase derived from Chinese hamster ovary cells was from R&D Systems. […] The plates were washed three times with PBST, shaken dry, and stored for up to two weeks at 4° C. before use. […] Following initiation of the reaction by addition of fondaparinux, the plate was sealed with adhesive film and incubated at 37° C. for 20-24 h.
Test compounds were dissolved and added to the assay at varying concentrations to calculate the level of inhibition.
For orientation: Tetrazolium dyes change colour on reduction, which living cells bring about.
Take `COc1cc2nc(-c3cccc4cccnc34)nc(NCCc3ccccc3)c2cc1OC` [BT-2164]: the pIC50 was 5.21.

Staying with this test, now noted: IC50 heparanase inhibition by compounds of Formula 2-4, Table 4.
As to `CCOC(=O)CSc1nc2cc(OC)c(OC)cc2c(=N)n1CCNC(=O)c1cc2ccccc2[nH]1` [BT-2136], the pIC50 is 4.57.

Still in this test, the particulars now being: Table 3; read-out: IC50 heparanase inhibition by compounds of Formula 1.
Regarding `COc1cc2nc(-c3cccc4cccnc34)nc(NCCc3c[nH]c4ccccc34)c2cc1OC` [BT-2062], the pIC50 is 6.00.
As to `COc1cc2nc(NCCNC(=O)c3cc(-c4ccccc4)on3)nc(N)c2cc1OC` [BT-2161], the pIC50 was 4.72.
With `COc1cc2nc(NCCc3ccccn3)nc(NCCc3c[nH]c4ccccc34)c2cc1OC` [BT-2179], the pIC50 is 4.74.
With `COc1cc2nc(NCCNC(=O)c3nnc(-c4ccccc4)s3)nc(N)c2cc1OC` [BT-2229], the pIC50 was 4.87.
Regarding `COc1cc2nc(-c3cccc4cccnc34)nc(NC3CN(C(=O)c4cc5ccccc5[nH]4)C3)c2cc1OC` [BT-2120], the pIC50 is 6.15.
On the same count and under the same terms, under `COc1cc2nc(-c3cccc4cccnc34)nc(NCCNS(=O)(=O)c3ccccc3)c2cc1OC` [BT-2184] stands 5.47.
Same read-out and setting: with `COc1cc2nc(-c3ccc4ccccc4c3)nc(NCCc3c[nH]c4ccccc34)c2cc1OC` [BT-2057] the figure was 4.25; with `COc1cc2nc(-c3ccc4c(c3)OCCO4)nc(NCCc3c[nH]c4ccccc34)c2cc1OC` [BT-2171], 4.85; with `COc1cc2nc(-c3ccc4[nH]ccc4c3)nc(NCCc3c[nH]c4ccccc34)c2cc1OC` [BT-2005], 4.39.
As to `COc1cc2nc(NCCNC(=O)c3nnc(-c4cc5ccccc5[nH]4)o3)nc(N)c2cc1OC` [BT-2173], the pIC50 was 5.37.
Regarding `COc1cc2nc(-c3ccccc3CN3CCOCC3)nc(NCCc3c[nH]c4ccccc34)c2cc1OC` [BT-2090], the pIC50 is 4.27.
On to `COc1cc2nc(N3CCN(C(=O)C4COc5ccccc5O4)CC3)nc(N)c2cc1OC` (stereo not shown) [BT-2013, doxazosin mesylate, reference compound], for which the pIC50 was 4.24.
In the case of `COc1cc2nc(NCCNC(=O)c3nnc(-c4c[nH]c5ncccc45)o3)nc(N)c2cc1OC` [BT-2177], the pIC50 was 4.68.
In the case of `COc1cc2nc(NCCNC(=O)c3nnc(-c4ccccc4)o3)nc(NCCc3ccccc3)c2cc1OC` [BT-2170], the pIC50 is 4.26.
On the same count and under the same terms, under `COc1cc2nc(-c3cncc4ccccc34)nc(NCCc3c[nH]c4ccccc34)c2cc1OC` [BT-2007] stands 4.03; under `COc1cc2nc(NCCNC(=O)c3nnc(-c4cc5ccccc5[nH]4)o3)nc(N)c2cc1OC` [BT-2169], 5.48.
With `COc1cc2nc(-c3cccc4cccnc34)nc(NCCc3ccccn3)c2cc1OC` [BT-2178], the pIC50 was 4.96.
`COc1cc2nc(NCCNC(=N)N)nc(NCCc3c[nH]c4ccccc34)c2cc1OC` [BT-2182]: the pIC50 is 4.74.
Consider `COc1cc2nc(-c3cccc4cccnc34)nc(NCCNC(=N)N)c2cc1OC` [BT-2181], for which the negative-log IC50 (pIC50) is 4.96.
Regarding `COC(=O)c1ccc2c(S(=O)(=O)NC3CN(c4nc(N)c5cc(OC)c(OC)cc5n4)C3)c[nH]c2c1` [BT-2148], the pIC50 was 4.69.
Take `COc1cc2nc(-c3cccc4cccnc34)nc(NCCNC(=O)c3nnc(-c4ccccc4)o3)c2cc1OC` [BT-2187]: the pIC50 was 5.39.
Take `COc1cc2nc(N3CC(NC(=O)c4nnc(-c5ccccc5)o4)C3)nc(N)c2cc1OC` [BT-2167]: the pIC50 was 4.48.
Take `COc1cc2nc(NCCNC(=O)c3nnc(-c4cccc(F)c4)o3)nc(N)c2cc1OC` [BT-2185]: the pIC50 is 4.66.

Staying with this test, now noted: Table 4; read-out: IC50 heparanase inhibition by compounds of Formula 2-4.
Take `COc1cc2[nH]c(=S)n(CCNC(=O)c3ccc(-c4ccccc4)[nH]3)c(=N)c2cc1OC` [BT-2113]: the pIC50 was 4.97.
Same read-out and setting: with `COc1cc2[nH]c(=S)n(CCNC(=O)c3c[nH]c4ccccc34)c(=N)c2cc1OC` [BT-2071] the figure was 5.15; with `COc1cc2[nH]c(=S)n(CCNC(=O)c3cc(-c4ccccc4)on3)c(=N)c2cc1OC` [BT-2133], 4.50.
Take `COc1cc2nc(SCc3ccc(OC(F)(F)F)cc3)n(CCNC(=O)c3cc4cc(-c5cccnc5)ccc4[nH]3)c(=N)c2cc1OC` [BT-2153]: the pIC50 is 5.24.
Same read-out and setting: with `COc1cc2[nH]c(=S)n(CCNC(=O)c3cc4ccccc4[nH]3)c(=N)c2cc1OC` [BT-2058] the figure was 5.05; with `COc1cc2nc(SCc3cccc(C(F)(F)F)c3)n(CCNC(=O)c3cc4ccc(-c5cccnc5)cc4[nH]3)c(=N)c2cc1OC` [BT-2137], 4.55.
Consider `COc1cc2nc(SCc3ccc(C(F)(F)F)cc3)n(CCNC(=O)c3cc4cc(-c5cccnc5)ccc4[nH]3)c(=N)c2cc1OC` [BT-2152], for which the pIC50 was 5.54.
For `COc1cc2[nH]c(=S)n(CCNC(=O)c3cc4cc(-c5ccc(C(=O)N6CCN(C)CC6)cc5)ccc4[nH]3)c(=N)c2cc1OC` [BT-2068], the pIC50 was 5.55.
With `COc1cc2[nH]c(=S)n(CCNC(=O)c3n[nH]c4ccccc34)c(=N)c2cc1OC` [BT-2100], the pIC50 was 4.43.
In the case of `COc1cc2[nH]c(=S)n(CCNC(=O)c3cc4ccc(-c5cccnc5)cc4[nH]3)c(=N)c2cc1OC` [BT-2072], the pIC50 was 5.51.
Same read-out and setting: with `COc1ccc(-c2ccc3[nH]c(C(=O)NCCn4c(=S)[nH]c5cc(OC)c(OC)cc5c4=N)cc3c2)cn1` [BT-2066] the figure was 5.38; with `COc1cc2nc(SC)n(CCNC(=O)c3cc4ccccc4[nH]3)c(=N)c2cc1OC` [BT-2134], 4.60; with `COc1cc2[nH]c(=S)n(CCNC(=O)c3c[nH]c4c(O)cccc34)c(=N)c2cc1OC` [BT-2103], 4.97.
As for `COc1cc2nc(SCc3ccc(C(F)(F)F)cc3)n(CCNC(=O)c3cc4ccc(-c5cccnc5)cc4[nH]3)c(=N)c2cc1OC` [BT-2138], the pIC50 is 5.23.
Turning to `COc1cc2[nH]c(=S)n(CCNC(=O)c3cc4cc(-c5cccnc5)ccc4[nH]3)c(=N)c2cc1OC` [BT-2070], the pIC50 was 6.00.

For orientation: pIC50 means the IC50 on a negative log10 scale, so that one unit is a factor of ten.

(Values after US20200093852A1, “Methods of Treating Ocular Disorders” (priority 2016, published 2020).)
